Laboratory results as given in US20090088380A1, “GHRH ANALOGS AND THERAPEUTIC USES THEREOF” (priority 2007, published 2009).
Non-standard residues stand in square brackets, D forms with d. Residues, ends and D or L forms follow the SMILES beside them.

Assays:
Rat Growth Hormone = assay: In vivo GH secretion in adult female Sprague-Dawley rats, single SC or IV injection, RIA; settings: for GH AUC 45 min / GH AUC 300 min / GH AUC 120 min: in ng·min/mL (unit assumed)
Experimental: In order to assess such use of the GHRH analogs, the following experiments were undertaken. More specially, the goal was to assess the pharmacodynamic and pharmacokinetic profiles and acute toxicity of GHRH analog #5 when administered once by subcutaneous or intravenous injection to female Sprague-Dawley rats followed by a 14-day observation period and the pharmacodynamic profile in a male Beagle dog when the GHRH analog was administered at escalating doses to the same dog by subcutaneous injection with at least 2-day washout period. The above GHRH analog is a variation of a synthetic acetate salt of an amidated synthetic 29-amino acid peptide that corresponds to the amino-terminal segment of the naturally-occurring human growth hormone—releasing hormone (GHRH) with four amino acid substitutions in positions 2, 10, 15, and 22.
Human GHRH analog #5 in 0.9% sodium chloride for injection USP was administered once either by intravenous (IV) or subcutaneous (SC) injection to female rats followed by a 14-day observation period, as shown in Table 2. Prior to administration, all dosing formulations were filtered using a 0.22 μm filter to ensure sterility. The actual amount of GHRH analog #5 administered was calculated and adjusted based on the animal's most recent body weight. Dosing started at approximately the same time each day, commencing at 9:00 am ±30 minutes.
For pharmacodynamic investigations, blood samples (approximately 1.3 ml) were collected from 2 animals per group per time point (maximum 3 time points/animal) via a jugular venipuncture at the following time points: […] All blood samples were collected into potassium EDTA tubes and centrifuged under refrigeration (2 to 8° C., 1500 g for 10 minutes).
Rat Growth Hormone Determination • Plasma GH was determined by Linco Diagnostic Services using their own kit. Linco's Rat Growth Hormone radioimmunoassay kit (RIA) (RGH-45HK) is intended for the quantitative determination of Rat Growth Hormone in serum, plasma, and tissue culture media. It is a completely homologous assay since the antibody was raised against recombinant Rat Growth Hormone and both the tracer and the standard are prepared with the same recombinant Rat Growth Hormone. The kit includes standards, antibody, tracer, quality controls, precipitating reagents and buffer necessary to complete a RIA. The assay was conducted under the following conditions: overnight; equilibrium incubation at room temperature; sample volume: 100 μl serum, plasma, or cell culture media. The label used was 125I-Rat Growth Hormone (20,000 CPM/tube).

in vivo = settings: Sprague-Dawley, rat
Experimental: No mortality, adverse clinical sign, effects on body weight, food consumption, opthalmology, haematology, coagulation, clinical chemistry, urinalysis, organ weights, macroscopic or microscopic observations were noted following the dosing or recovery periods. The no adverse effect level for this study was determined to be 3 mg/kg body weight.

## CC[C@H](C)[C@H](NC(=O)[C@H](C)NC(=O)[C@H](CC(=O)O)NC(=O)[C@@H](C)NC(=O)[C@@H](N)Cc1ccc(O)cc1)C(=O)N[C@@H](Cc1ccccc1)C(=O)N[C@H](C(=O)N[C@@H](CC(N)=O)C(=O)N[C@@H](CO)C(=O)N[C@H](Cc1ccc(O)cc1)C(=O)N[C@@H](CCCNC(=N)N)C(=O)N[C@@H](CCCCN)C(=O)N[C@H](C(=O)N[C@@H](CC(C)C)C(=O)N[C@H](C)C(=O)N[C@@H](CCC(N)=O)C(=O)N[C@@H](CC(C)C)C(=O)N[C@@H](CO)C(=O)N[C@@H](C)C(=O)N[C@@H](CCCNC(=N)N)C(=O)N[C@@H](CCCCN)C(=O)N[C@@H](CCCCN)C(=O)N[C@@H](CC(C)C)C(=O)N[C@@H](CCC(N)=O)C(=O)N[C@@H](CC(=O)O)C(=O)N[C@H](C(=O)N[C@@H](CCSC)C(=O)N[C@@H](CO)C(=O)N[C@@H](CCCNC(=N)N)C(N)=O)[C@@H](C)CC)C(C)C)[C@@H](C)O [GHRH analog #5, [D-Ala^2, D-Tyr^10, D-Ala^15, Lys^22] hGHRH(1-29)-NH2] (H-Y[dA]DAIFTNS[dY]RKVL[dA]QLSARKKLQDIMSR-NH2)
Rat Growth Hormone; 0.001 mg/kg BW IV, 4 min
  Plasma Rat Growth Hormone: 26.2 ng/mL
Rat Growth Hormone; 0.001 mg/kg BW IV, 10 min
  Plasma Rat Growth Hormone: 25.85 ng/mL
Rat Growth Hormone; 0.001 mg/kg BW IV, 15 min
  Plasma Rat Growth Hormone: 34.65 ng/mL
Rat Growth Hormone; 0.001 mg/kg BW IV, 45 min
  Plasma Rat Growth Hormone: 21.15 ng/mL
Rat Growth Hormone; 0.001 mg/kg BW IV, 300 min
  Plasma Rat Growth Hormone: 67.15 ng/mL
Rat Growth Hormone; 0.001 mg/kg BW IV
  GH AUC 45 min: 1197
  GH AUC 300 min: 12280
Rat Growth Hormone; 0.001 mg/kg BW IV, −120 min
  Plasma Rat Growth Hormone: 23.85 ng/mL
Rat Growth Hormone; 0.001 mg/kg BW SC, 15 min
  Plasma Rat Growth Hormone: 36.7 ng/mL
Rat Growth Hormone; 0.001 mg/kg BW SC, 30 min
  Plasma Rat Growth Hormone: 14.2 ng/mL
Rat Growth Hormone; 0.001 mg/kg BW SC, 60 min
  Plasma Rat Growth Hormone: 26.85 ng/mL
Rat Growth Hormone; 0.001 mg/kg BW SC, 120 min
  Plasma Rat Growth Hormone: 17.8 ng/mL
Rat Growth Hormone; 0.001 mg/kg BW SC, 300 min
  Plasma Rat Growth Hormone: 21.85 ng/mL
Rat Growth Hormone; 0.001 mg/kg BW SC
  GH AUC 120 min: 2914
  GH AUC 300 min: 6482
Rat Growth Hormone; 0.001 mg/kg BW SC, −120 min
  Plasma Rat Growth Hormone: 20.15 ng/mL
Rat Growth Hormone; 0.01 mg/kg BW SC, 15 min
  Plasma Rat Growth Hormone: 190.4 ng/mL
Rat Growth Hormone; 0.01 mg/kg BW SC, 30 min
  Plasma Rat Growth Hormone: 31.9 ng/mL
Rat Growth Hormone; 0.01 mg/kg BW SC, 60 min
  Plasma Rat Growth Hormone: 8.5 ng/mL
Rat Growth Hormone; 0.01 mg/kg BW SC, 120 min
  Plasma Rat Growth Hormone: 7.6 ng/mL
Rat Growth Hormone; 0.01 mg/kg BW SC, 300 min
  Plasma Rat Growth Hormone: 11.95 ng/mL
Rat Growth Hormone; 0.01 mg/kg BW SC
  GH AUC 120 min: 5153
  GH AUC 300 min: 6913
Rat Growth Hormone; 0.01 mg/kg BW SC, −120 min
  Plasma Rat Growth Hormone: 20.4 ng/mL
Rat Growth Hormone; 0.03 mg/kg BW IV, 4 min
  Plasma Rat Growth Hormone: 68.45 ng/mL
Rat Growth Hormone; 0.03 mg/kg BW IV, 10 min
  Plasma Rat Growth Hormone: 254.65 ng/mL
Rat Growth Hormone; 0.03 mg/kg BW IV, 15 min
  Plasma Rat Growth Hormone: 75.1 ng/mL
Rat Growth Hormone; 0.03 mg/kg BW IV, 45 min
  Plasma Rat Growth Hormone: 33.4 ng/mL
Rat Growth Hormone; 0.03 mg/kg BW IV, 300 min
  Plasma Rat Growth Hormone: 38.75 ng/mL
Rat Growth Hormone; 0.03 mg/kg BW IV
  GH AUC 45 min: 3407
  GH AUC 300 min: 12060
Rat Growth Hormone; 0.03 mg/kg BW IV, −120 min
  Plasma Rat Growth Hormone: 43.15 ng/mL
Rat Growth Hormone; 0.03 mg/kg BW SC, 15 min
  Plasma Rat Growth Hormone: 240.9 ng/mL
Rat Growth Hormone; 0.03 mg/kg BW SC, 30 min
  Plasma Rat Growth Hormone: 39.05 ng/mL
Rat Growth Hormone; 0.03 mg/kg BW SC, 60 min
  Plasma Rat Growth Hormone: 9.5 ng/mL
Rat Growth Hormone; 0.03 mg/kg BW SC, 120 min
  Plasma Rat Growth Hormone: 4.6 ng/mL
Rat Growth Hormone; 0.03 mg/kg BW SC, 300 min
  Plasma Rat Growth Hormone: 11.25 ng/mL
Rat Growth Hormone; 0.03 mg/kg BW SC
  GH AUC 120 min: 6192
  GH AUC 300 min: 7618
Rat Growth Hormone; 0.03 mg/kg BW SC, −120 min
  Plasma Rat Growth Hormone: 36.1 ng/mL
Rat Growth Hormone; 0.1 mg/kg BW SC, 15 min
  Plasma Rat Growth Hormone: 252.4 ng/mL
Rat Growth Hormone; 0.1 mg/kg BW SC, 30 min
  Plasma Rat Growth Hormone: 43.8 ng/mL
Rat Growth Hormone; 0.1 mg/kg BW SC, 60 min
  Plasma Rat Growth Hormone: 7.65 ng/mL
Rat Growth Hormone; 0.1 mg/kg BW SC, 120 min
  Plasma Rat Growth Hormone: 4.45 ng/mL
Rat Growth Hormone; 0.1 mg/kg BW SC, 300 min
  Plasma Rat Growth Hormone: 18.7 ng/mL
Rat Growth Hormone; 0.1 mg/kg BW SC
  GH AUC 120 min: 6423
  GH AUC 300 min: 8507
Rat Growth Hormone; 0.1 mg/kg BW SC, −120 min
  Plasma Rat Growth Hormone: 20.4 ng/mL
Rat Growth Hormone; 0.3 mg/kg BW SC, 15 min
  Plasma Rat Growth Hormone: 247.9 ng/mL
Rat Growth Hormone; 0.3 mg/kg BW SC, 30 min
  Plasma Rat Growth Hormone: 133.5 ng/mL
Rat Growth Hormone; 0.3 mg/kg BW SC, 60 min
  Plasma Rat Growth Hormone: 16.75 ng/mL
Rat Growth Hormone; 0.3 mg/kg BW SC, 120 min
  Plasma Rat Growth Hormone: 4.00 ng/mL
Rat Growth Hormone; 0.3 mg/kg BW SC, 300 min
  Plasma Rat Growth Hormone: 21.8 ng/mL
Rat Growth Hormone; 0.3 mg/kg BW SC
  GH AUC 120 min: 8636
  GH AUC 300 min: 10958
Rat Growth Hormone; 0.3 mg/kg BW SC, −120 min
  Plasma Rat Growth Hormone: 20.7 ng/mL
Rat Growth Hormone; 1.00 mg/kg BW SC, 15 min
  Plasma Rat Growth Hormone: 270.0 ng/mL
Rat Growth Hormone; 1.00 mg/kg BW SC, 30 min
  Plasma Rat Growth Hormone: 155.85 ng/mL
Rat Growth Hormone; 1.00 mg/kg BW SC, 60 min
  Plasma Rat Growth Hormone: 24.35 ng/mL
Rat Growth Hormone; 1.00 mg/kg BW SC, 120 min
  Plasma Rat Growth Hormone: 15.85 ng/mL
Rat Growth Hormone; 1.00 mg/kg BW SC, 300 min
  Plasma Rat Growth Hormone: 28.85 ng/mL
Rat Growth Hormone; 1.0 mg/kg BW SC
  GH AUC 120 min: 10425
  GH AUC 300 min: 14448
Rat Growth Hormone; 1.00 mg/kg BW SC, −120 min
  Plasma Rat Growth Hormone: 88.95 ng/mL
Rat Growth Hormone; 3.0 mg/kg BW IV, 4 min
  Plasma Rat Growth Hormone: 38.7 ng/mL
Rat Growth Hormone; 3.0 mg/kg BW IV, 10 min
  Plasma Rat Growth Hormone: 36.95 ng/mL
Rat Growth Hormone; 3.0 mg/kg BW IV, 15 min
  Plasma Rat Growth Hormone: 83.65 ng/mL
Rat Growth Hormone; 3.0 mg/kg BW IV, 45 min
  Plasma Rat Growth Hormone: 41.6 ng/mL
Rat Growth Hormone; 3.0 mg/kg BW IV, 300 min
  Plasma Rat Growth Hormone: 56.7 ng/mL
Rat Growth Hormone; 3.0 mg/kg BW IV
  GH AUC 45 min: 2384
  GH AUC 300 min: 14299
Rat Growth Hormone; 3.0 mg/kg BW IV, −120 min
  Plasma Rat Growth Hormone: 48.6 ng/mL
Rat Growth Hormone; 3.00 mg/kg BW SC, 15 min
  Plasma Rat Growth Hormone: 453.0 ng/mL
Rat Growth Hormone; 3.00 mg/kg BW SC, 30 min
  Plasma Rat Growth Hormone: 181.55 ng/mL
Rat Growth Hormone; 3.00 mg/kg BW SC, 60 min
  Plasma Rat Growth Hormone: 59.4 ng/mL
Rat Growth Hormone; 3.00 mg/kg BW SC, 120 min
  Plasma Rat Growth Hormone: 4.45 ng/mL
Rat Growth Hormone; 3.00 mg/kg BW SC, 300 min
  Plasma Rat Growth Hormone: 47.9 ng/mL
Rat Growth Hormone; 3.0 mg/kg BW SC
  GH AUC 120 min: 15562
  GH AUC 300 min: 20273
Rat Growth Hormone; 3.00 mg/kg BW SC, −120 min
  Plasma Rat Growth Hormone: 20.05 ng/mL
Rat Growth Hormone; rat
  GH secretion compared with natural hGHRH(1-44)NH2 (pulse amplitude and AUC): twice larger
Rat Growth Hormone; rat and dog
  In vivo potency compared with the natural 44 amino acid GHRH: at least two times more potent in vivo
Rat Growth Hormone; rat, highest single IV dose
  Somatotroph desensitization: induced transient somatotroph desensitization
Rat Growth Hormone; rat, intravenous and subcutaneous
  GH secretion into peripheral blood, dose dependence: dose-dependent response
Rat Growth Hormone; rat, intravenous injection
  Time of peak GH secretion: 4 to 10 min
Rat Growth Hormone; rat, single subcutaneous injection
  Time of peak GH secretion: 10 to 15 min
In vivo
  NOAEL at 672 h: 3 mg/kg
